Assay results reported in patent publication US11485728B2, “Small molecules for the treatment of autoimmune diseases and cancer” (Athos Therapeutics, Inc., priority 2020, dated 2022).

Experiments:
Format in all cases: in vitro ADME
[1] = In-vitro half-life in human liver microsomes; details: Human liver microsomes 0.5 mg/mL; 1 μg/mL drug; NRS; read-out: Metabolic Half-life
Procedure: (§1) In each of the species (human, rat, mouse) of liver matrix to be tested, a working concentration of 2 μg/mL was prepared of each test article from the 0.5 mg/mL DMSO stock solution by adding 3 μL of 0.5 mg/mL test article stock solution to 747 μL of the 1 mg/mL liver matrix. Incubation was performed at 37±2° C. with gentle, continuous mixing in shaking water bath in 2.0 mL-well capacity 96-Deepwell plates (96-DWP). Samples were retrieved in duplicate at the following time points: 0, 5, 10, 15, 30 and 60 minutes. The final mixture contained 1 μg/mL of drug and 0.5 mg/mL of liver matrix. First, 50 μL of test articles in liver matrix was added to the 96-DWP and pre-warmed the mixture in the 96-DWP for 2 minutes in the 37° C. water bath. The enzymatic reaction was started by the addition of 50 μL of the corresponding 2× NADPH regenerating system (NRS) cofactor solution to all sample wells and stopped by the addition of 300 μL of stop solution (acetonitrile containing 10 ng/mL Tolbutamide as an internal standard (I.Std.). The samples were agitated for 10 minutes and then centrifuged for 20 minutes at 4500 rpm. 25 μL of supernatant was diluted with 475 μL acetonitrile containing I. Std. into a new 96-DWPs for LC-MS/MS analysis.
(§2) Half-life calculations were generated and calculated by Graphpad Prism® software. The half-life of test compound was calculated based on the first-order reaction kinetics. The data was transformed to linear regression (y=log(y) where “y” axis represents the % compound remaining at any given time with respect to time 0 minutes; “x” axis represents time in minutes) in order to calculate the half-life.
(§3) A comparison of metabolic stability in time-course incubation experiments in varying species of liver can provide information of pharmacokinetic properties of drugs attributable to species-related differences in hepatic metabolism. The results of these experiments often assist in further applications such as assessing in vitro metabolite profiling and choosing relevant species for toxicology studies based on similarities relative to the metabolic stability to the human profile. For these experiments, the test compound was tested in parallel with a positive control, Dasatinab, in an enzymatic reaction solution of each species (human and rat) of liver microsomes containing a NADPH regenerating system (NRS). The final mixture contained 1 μg/mL of drug and 0.5 mg/mL of liver matrix. Incubations were performed at 37±2° C. with gentle, continuous mixing in shaking water bath in 96-Deep well plates. The stability of the test compound is monitored using fast, specific and sensitive LC/MS/MS analysis.

[2] = In-vitro half-life in rat liver microsomes; details: Rat liver microsomes 0.5 mg/mL; 1 μg/mL drug; NRS; read-out: Metabolic Half-life
Procedure: as §1, §2, §3

[3] = In-vitro half-life in mouse liver microsomes; details: Mouse liver microsomes 0.5 mg/mL; 1 μg/mL drug; NRS; read-out: Metabolic Half-life
Procedure: as §1, §2, §3

CYP3A4 = biological target: T1, CYP3A4 (Homo sapiens, UniProt P08684); assay: CYP-direct inhibition, CYP3A4
T1 construct: from tissue; host or cells: pooled human liver microsomes
T1 sequence (P08684 whole entry): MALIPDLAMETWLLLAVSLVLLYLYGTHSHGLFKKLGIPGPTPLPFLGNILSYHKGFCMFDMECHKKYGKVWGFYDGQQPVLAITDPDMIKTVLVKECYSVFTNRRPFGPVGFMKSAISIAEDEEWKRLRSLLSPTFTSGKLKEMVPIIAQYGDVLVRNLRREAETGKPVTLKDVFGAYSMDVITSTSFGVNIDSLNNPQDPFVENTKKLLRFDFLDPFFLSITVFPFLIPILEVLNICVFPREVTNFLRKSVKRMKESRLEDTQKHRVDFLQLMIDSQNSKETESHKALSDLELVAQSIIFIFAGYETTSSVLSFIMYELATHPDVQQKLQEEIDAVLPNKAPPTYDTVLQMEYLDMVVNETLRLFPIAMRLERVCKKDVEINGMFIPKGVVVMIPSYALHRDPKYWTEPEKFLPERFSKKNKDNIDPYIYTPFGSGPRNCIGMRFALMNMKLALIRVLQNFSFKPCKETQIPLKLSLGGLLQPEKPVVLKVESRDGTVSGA
Procedure: Many drugs inhibit cytochrome P450 enzymes to cause clinically significant changes in the pharmacokinetics of other drugs. In vitro cytochrome P450 inhibition, can provide crucial information in evaluating potential clinical drug-drug interactions and is useful for focusing in vivo tests to areas of concern. The cytochrome P450 inhibition assay was developed by preparing a working cocktail solution consisting of six probe substrates 10 μM ethoxy-resorufin (CYP1A2), 100 μM rosiglitazone (CYP2C8), 50 μM diclofenac (CYP2C9), 300 μM S-mephenytoin (CYP2C19), 50 μM dextromethorphan (CYP2D6), and 20 μM midazolam (CYP3A4). A mixture solution consists of 140 uL of 0.286 mg/mL of pooled human liver microsome working solution and 20 uL working solutions of test articles, standard control inhibitors, or positive control placebo and 20 uL of substrate cocktail mixture working solution was prepared. The mixture solution was pre-warm in a gentle shaking bath at 37±2° C. for 5 minutes. The enzymatic reaction started by adding 20 uL of NRS working solution to the mixture solution and incubated for 10 minutes at 37±2° C. To stop the reaction, an addition of 400 μL cold stop solution (acetonitrile containing 50 ng/mL Tolbutamide as an internal standard (I.Std.) was added to the mixture solution. The final concentration of test article, inhibitors, substrates, and cofactors are noted in Table 0.1 below. Two individual samples were prepared for each test compound. The extracted samples were vortexed and then centrifuged at 4500 rpm for 7 minutes using Eppendorf Centrifuge 5910R. 200 uL of supernatant was diluting with 200 uL of 50% Methanol into 96-DW plate for LC/MS/MS analysis
Concentration-response plots are used to determine the effects of an inhibitor on an enzymatic reaction. A typical concentration-response plot provides fractional activity (Y axis) is plotted as a function of log inhibitor concentration (X axis). The data are fitted using a standard Sigmoidal dose-response equation which is also called a […] logistic equation. The concentration of compound that results in 50% inhibition of maximal activity is termed as the IC50 (inhibitor concentration yielding 50% inhibition). IC50 value is calculated using Prism GraphPad software, version 9. […].
Cytochrome P450 inhibition of a drug is a key factor in determining pharmacokinetic drug-drug interactions. The objective of this study was to evaluate the inhibition potential of G9a inhibitors on six (6) major human cytochrome P450 enzymes, including CYP1A2, CYP2C8, CYP2C9, CYP2C19, CYP2D6, and CYP3A4. Inhibition was determined by using a substrate cocktail and analyzing the rate of specific metabolites formation. The cytochrome P450 inhibition assay was developed using a cocktail consisting of six (6) probe substrates ethoxy-resorufin (CYP1A2), rosiglitazone (CYP2C8), diclofenac (CYP2C9), S-mephenytoin (CYP2C19), dextromethorphan (CYP2D6), and midazolam (CYP3A4). The cocktail was incubated in human liver microsome with NADPH regenerating system (NRS) in a shaking bath at 37±2° C. The formation of specific metabolites was monitored by LC/MS/MS. Test compound was added to the cocktail-liver microsome mixture at varying concentrations and its effect on cytochrome P450 activity was determined by analyzing the rate of specific metabolite formation. The percent inhibition was calculated and plotted with reference to the concentration, and the IC50 value for inhibition was derived by fitting the data with a using log(inhibitor) vs. normalized response with variable slope least squares fit by Graphpad Prism® software. […].

| Compound | half-life at 1 μg/mL [1] [h] | half-life at 1 μg/mL [2] [h] | half-life at 1 μg/mL [3] [h] | IC50 (CYP3A4) [µM] |
| --- | --- | --- | --- | --- |
| COc1cc2c(Nc3ccncc3)nc(-n3ccnc3)nc2cc1OCCCN1CCCC1 [Compound 130, 2-(1H-imidazol-1-yl)-6-methoxy-N-(pyridin-4-yl)-7-(3-(pyrrolidin-1-yl)propoxy)quinazolin-4-amine] | > 1 | > 1 | 0.535 | 3.85 |
| COc1cc2c(NC3CCN(C(C)C)CC3)nc(-n3ccnc3)nc2cc1OCCCN1CCCC1 [Compound 156, 2-(1H-imidazol-1-yl)-N-(1-isopropylpiperidin-4-yl)-6-methoxy-7-(3-(pyrrolidin-1-yl)propoxy)quinazolin-4-amine] | > 1 | > 1 | 0.988 | > 100 |
| COc1cc2c(NC3CCN(C(C)C)CC3)nc(-n3cccn3)nc2cc1OCCCN1CCCC1 [Compound 157, N-(1-isopropylpiperidin-4-yl)-6-methoxy-2-(1H-pyrazol-1-yl)-7-(3-(pyrrolidin-1-yl)propoxy)quinazolin-4-amine] | > 1 | > 1 | > 1 | > 100 |
| COc1cc2c(N[C@H]3CCCNC3)nc(N3CCCC3)nc2cc1OCCCN1CCCC1 [Compound 158, (S)-6-methoxy-N-(piperidin-3-yl)-2-(pyrrolidin-1-yl)-7-(3-(pyrrolidin-1-yl)propoxy)quinazolin-4-amine] | > 1 | 0.55 | 0.637 | > 100 |
| COc1cc2c(N[C@@H]3CCCNC3)nc(N3CCCC3)nc2cc1OCCCN1CCCC1 [Compound 159, (R)-6-methoxy-N-(piperidin-3-yl)-2-(pyrrolidin-1-yl)-7-(3-(pyrrolidin-1-yl)propoxy)quinazolin-4-amine] | > 1 | 0.555 | 0.655 | > 100 |
| COc1cc2c(NC3CCOCC3)nc(N3CCCC3)nc2cc1OCCCN1CCCC1 [Compound 164, 6-methoxy-2-(pyrrolidin-1-yl)-7-(3-(pyrrolidin-1-yl)propoxy)-N-(tetrahydro-2H-pyran-4-yl)quinazolin-4-amine] | > 1 | > 1 | > 1 | > 100 |
| COc1cc2c(NC3CCOCC3)nc(N3CCC3)nc2cc1OCCCN1CCCC1 [Compound 174, 2-(azetidin-1-yl)-6-methoxy-7-(3-(pyrrolidin-1-yl)propoxy)-N-(tetrahydro-2H-pyran-4-yl)quinazolin-4-amine] | > 1 | > 1 | > 1 | > 100 |
| COc1cc2c(NC3CCOCC3)nc(N3CCOCC3)nc2cc1OCCCN1CCCC1 [Compound 195, 6-methoxy-2-morpholino-7-(3-(pyrrolidin-1-yl)propoxy)-N-(tetrahydro-2H-pyran-4-yl)quinazolin-4-amine] | > 1 | > 1 | > 1 | > 100 |
| COc1cc2c(NC3CCOCC3)nc(N3CCS(=O)(=O)CC3)nc2cc1OCCCN1CCCC1 [Compound 196, 4-(6-methoxy-7-(3-(pyrrolidin-1-yl)propoxy)-4-((tetrahydro-2H-pyran-4-yl)amino)quinazolin-2-yl)thiomorpholine 1,1-dioxide] | > 1 | > 1 | > 1 | > 100 |
| COc1cc2c(NC3CCN(C(C)C)CC3)nc(N3CCC3)nc2cc1OCCCN1CCCC1 [Compound 234, 2-(azetidin-1-yl)-N-(1-isopropylpiperidin-4-yl)-6-methoxy-7-(3-(pyrrolidin-1-yl)propoxy)quinazolin-4-amine] | > 1 | > 1 | > 1 | > 100 |
| COc1cc2c(NC3CCN(C(C)C)CC3)nc(C#N)nc2cc1OCCCN1CCCC1 [Compound 235, 4-((1-isopropylpiperidin-4-yl)amino)-6-methoxy-7-(3-(pyrrolidin-1-yl)propoxy)quinazoline-2-carbonitrile] | > 1 | > 1 | > 1 | > 100 |
| COc1cc2c(NC3CCOCC3)nc(N3CCN(C)CC3)nc2cc1OCCCN1CCCC1 [Compound 236, 6-methoxy-2-(4-methylpiperazin-1-yl)-7-(3-(pyrrolidin-1-yl)propoxy)-N-(tetrahydro-2H-pyran-4-yl)quinazolin-4-amine] | > 1 | > 1 | 0.38 | > 100 |
| COc1cc2c(NC3CCOCC3)nc(N3CCCN(C)CC3)nc2cc1OCCCN1CCCC1 [Compound 237, 6-methoxy-2-(4-methyl-1,4-diazepan-1-yl)-7-(3-(pyrrolidin-1-yl)propoxy)-N-(tetrahydro-2H-pyran-4-yl)quinazolin-4-amine] | > 1 | 0.367 | 0.44 | > 100 |
| COc1cc2c(NC3CCS(=O)(=O)CC3)nc(N3CCC(F)(F)CC3)nc2cc1C#CCN1CCCC1 [Compound 248, 4-((2-(4,4-difluoropiperidin-1-yl)-6-methoxy-7-(3-(pyrrolidin-1-yl)prop-1-yn-1-yl)quinazolin-4-yl)amino)tetrahydro-2H-thiopyran 1,1-dioxide] | 0.63 | 0.282 | > 1 | > 100 |
| COc1cc2c(NC3CCN(C(C)C)CC3)nc(N3CCC(F)(F)CC3)nc2cc1OCCCN1CCCC1 [Compound 400, 2-(4,4-difluoropiperidin-1-yl)-N-(1-isopropylpiperidin-4-yl)-6-methoxy-7-(3-(pyrrolidin-1-yl)propoxy)quinazolin-4-amine, reference compound] | > 1 | > 1 | > 1 | > 100 |
